The nature of data set [1]: Chemical stability in simulated intestinal fluid (SIF). The class given is physicochemical. As to conditions: SIF without enzymes, pH 6.5; 10 μm; 2 hours at 37° C.; substance amount remaining. The method, boiled down:
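Compound at 10 μm (diluted from 10 mM DMSO stock) incubated 2 h at 37° C in enzyme-free SGF, pH=1,4, or enzyme-free SIF, pH=6.5. HPLC peak areas before and after incubation give % compound remaining.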

The nature of data set [2]: Chemical stability in human blood plasma. The class given is in vitro ADME. As to conditions: pooled human blood plasma; 10 μm; 4 hours at 37° C.; substance amount remaining. In a few lines: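 Percent of parent remaining was derived by comparing HPLC peak areas at time zero and after 4 h at 37 °C. Test compound was at 10 μM in human plasma pooled from ten donors, and proteins were precipitated with acetonitrile before analysis.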

Data set [3] in a line: Permeability through monolayer of Caco-2 cells. The class given is in vitro ADME. As to conditions: human, Caco-2 monolayer; for Papp A→B at 2 h, 10 µM: pH 6.5 upper / pH 7.4 lower, 2 h at 37° C.; for efflux ratio at 2 h, 10 µM: Papp B-A/Papp A-B. The source says:
2) Assessment of permeability through monolayer of Caco-2 cells.
Assessment of permeability through the monolayer of Caco-2 cells allows to evaluate the ability of the candidate compounds to penetrate through biological membranes by active and passive transport.
Caco-2, the cells of the intestinal epithelium, had been cultured in transwell plate inserts with the filters (with pores of 0.4 μm, BD Falcon with High Density) for 21 days, and then the integrity of the monolayer were estimated with Lucifer Yellow (Sigma-Aldrich, USA) by standard protocol. When setting the A→B transfer (“intestinal lumen”—“blood stream” transfer), solutions of test substances were added in a buffer with pH 6.5 (HBSS, 10 mM HEPES, 15 mM glucose solution) with the concentration of 10 μM into the upper chamber; the lower chamber was filled with a buffer with pH 7.4 (HBSS, 10 mM HEPES, 15 mM Glucose, 1% BSA). When setting B→A transfer (“blood stream”—“intestinal lumen” transfer), the upper chamber was filled with the buffer with pH 6.5, and solutions of the test substances were added in the buffer with pH 7.4 at the concentration of 10 μM in the lower chamber. Propranolol was used as a control substance (as it has high permeability).
After incubating for 2 h at 37° C. under 5% CO2, the amounts of test substances were determined in the upper and lower chambers by HPLC using Agilent1200 chromatograph (Agilent, USA) with preliminary protein precipitation with acetonitrile. We used gradient elution (1 mL/min flow rate). We determined the areas of peaks corresponding to the compounds. On the basis of peak areas in the calibration standards we determined the concentration of compound in the initial solution and in the samples from the wells of the upper and lower chambers. Papp, permeability through the cell layer, was calculated using the following formula:
Papp=(C(t)*V)/(C(0)*t*Area), wherein
The value was calculated with the following formula:
efflux=Papp B-A/Papp A-B, wherein • Papp A-B—the volume of permeability in A→B test; • Papp B-A—he volume of permeability in B→A test.
A general note: Caco-2 monolayers are a common model of the intestinal barrier.

Data set [4] relates to HCC827 (lung adenocarcinoma, SM, exon19delE746-A750). Kind of data set: Antiproliferative activity on HCC827 cells (Alamar Blue). The class given is cell-based. As to conditions: Homo sapiens, antiproliferative test. In a few lines: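 HCC827 cells (EGFR exon19del E746-A750), 10×10^3/well, attached 16–18 h, then exposed to compounds for 72 h at 37 °C in RPMI-1640 with 2% FBS, ≤1% DMSO. Viability by Alamar Blue fluorescence (ex 540/em 590 nm) after 3–5 h; IC50 by four-parameter logistic fit.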
(In general: Resazurin is reduced to fluorescent resorufin, in cell work by metabolically active cells.)

What is called Papp A→B is how fast a substance crosses the layer from the apical side. Lower therefore signals poor permeation. By efflux ratio is commonly meant a quotient of directional permeabilities that is used to spot active efflux. What is called IC50 is the concentration that gives 50% inhibition. A higher IC50 goes with a need for much substance. As to `C=CC(=O)Nc1cc(Nc2nccc(C(=O)c3ccc(N(CC)CC)cc3)n2)c(OC)cc1N(C)CCN(C)C` [EGFR_3365_72, N-(5-((4-(4-(diethylamino)benzoyl)pyrimidin-2-yl)amino)-2-((2-(dimethylamino)ethyl)(methyl)amino)-4-methoxyphenyl)acrylamide], the “Stability in SIF, %” value in data set [1] is given as 91.5%. Moreover, in data set [2], the “Stability in blood plasma, %” value was 94.6%. In data set [3], the Papp A→B at 2 h, 10 µM was found to be 3.5 ×10⁻⁶ cm/s and the efflux ratio at 2 h, 10 µM stood at 1.5. The compound further gave an IC50 in data set [4] of 13.5 nM.

Turning to `C=CC(=O)Nc1cc(Nc2nccc(C(=O)c3ccc(N(C)C)cc3)n2)c(OC)cc1N(C)CCN(C)C` [EGFR_3365_73, N-(5-((4-(4-(dimethylamino)benzoyl)pyrimidin-2-yl)amino)-2-((2-(dimethylamino)ethyl) (methyl)amino)-4-methoxyphenyl)acrylamide], the “Stability in SIF, %” value in data set [1] is given as 100.0%. For the same compound, the “Stability in blood plasma, %” value in data set [2] was determined as 90.5%. Also, in data set [3], the Papp A→B at 2 h, 10 µM amounted to 5.1 ×10⁻⁶ cm/s and the efflux ratio at 2 h, 10 µM stood at 1.6. In data set [4], this compound showed an IC50 of 4.47 nM.

These data come from patent US20200339544A1 (JOINT STOCK COMPANY "BIOCAD", priority 2017, published 2020).
